These results are taken from patent US9603930B2, “Liquid bendamustine formulation” (Navinta, LLC, priority 2014, dated 2017).

SMILES strings stand for the structures.

The conditions of series [1]: 2 months of storage at 25° C.; cited from earlier work.
For series [2] the following is noted: polyethylene glycol alone; from U.S. Pat. No. 8,609,707; cited from earlier work.
Series [3] can be described thus: Solubility of bendamustine in solvents.

`Cl.Cn1c(CCCC(=O)O)nc2cc(N(CCCl)CCCl)ccc21`: the “stability of the solid on storage” value in series [1] is listed as “degrades”.

Take `Cn1c(CCCC(=O)O)nc2cc(N(CCCl)CCCl)ccc21` [Bendamustine, 4-[5-[bis(2-chloroethyl)amino]-1-methylbenzimidazol-2-yl]butanoic acid]: in series [2], the “solubility in PEG alone” value is on record as “poorly soluble”. Moreover, the solubility in glycerin result in series [3] is “very high solubility”.
